# Reference: patent US11535597B2, “Photoreactive ligands and uses thereof” (The Scripps Research Institute, priority 2017, dated 2022)
# Entries after “also recorded” stand apart in the source; their conditions may differ.
# Tests used:
# Assay type in all cases: binding
# α-galactosidase (GLA) = molecular target: T1, α-galactosidase (GLA) (Homo sapiens, UniProt P06280); assay: Mapping of FFF probe-modified peptides on α-galactosidase (GLA); details: near the active site and a secondary ligand binding site, respectively
# T1 construct: endogenous in cells; host or cells: human cells (HEK293T; a subset of probes also in K562)
# T1 sequence (P06280 32-429): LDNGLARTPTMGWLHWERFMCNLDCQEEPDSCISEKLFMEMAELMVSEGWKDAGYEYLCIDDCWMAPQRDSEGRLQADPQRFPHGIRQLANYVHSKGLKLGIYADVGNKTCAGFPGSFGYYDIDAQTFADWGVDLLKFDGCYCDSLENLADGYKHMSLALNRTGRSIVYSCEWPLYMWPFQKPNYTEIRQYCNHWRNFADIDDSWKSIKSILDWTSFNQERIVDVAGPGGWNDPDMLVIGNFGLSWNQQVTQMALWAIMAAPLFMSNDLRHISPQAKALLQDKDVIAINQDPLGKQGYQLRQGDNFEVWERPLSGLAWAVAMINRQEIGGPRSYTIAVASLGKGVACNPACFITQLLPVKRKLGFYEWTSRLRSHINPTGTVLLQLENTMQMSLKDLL
# Procedure: (§1) Preparation and analysis was adapted from methods previously reported. In brief, for global mapping of fragment probe-modified peptides, separate 10 cm dishes of cells were treated with probes (200-250 μM) in 3.0 mL of DMEM (serum-free) and (if applicable) competitor ligands, proteomes harvested and subjected to click chemistry conditions with either light or heavy isotopically labeled biotin-TEV-azide (10 μL of 5 mM stocks in DMSO, final concentration=100 μM), TCEP, ligand and CuSO4 as detailed above. The samples were allowed to react for 1 h at which point the samples were centrifuged (16,000 g, 5 min, 4° C.). The resulting pellets were sonicated in ice-cold methanol (500 μL) and the resuspended light- and heavy-labeled samples were then combined and centrifuged (16,000 g, 5 min, 4° C.). The pellets were then solubilized in PBS containing 1.2% SDS (1 mL) with sonication and heating (5 min, 95° C.). Samples were transferred to falcon tubes containing DPBS (5 mL), to which a 100 μL of streptavidin-agarose beads slurry was added. After incubation, the beads (3 hr) were pelleted by centrifugation (1,400 g, 3 min) and were washed (2×10 mL PBS and 2×10 mL water). The beads were transferred to eppendorf tubes with 1 mL DPBS, centrifuged (1,400 g, 3 min), and resuspended in PBS containing 6 M urea. To this was added 10 mM DTT (25 μL of a 200 mM stock in water) and the beads were incubated at 65° C. for 15 mins. 20 mM iodoacetamide (25 μL of a 400 mM stock in water) was then added and allowed to react at 37° C. for 30 mins with shaking. The bead mixture was diluted with 900 μL PBS, pelleted by centrifugation (1,400 g, 3 min), and resuspended in 200 μL 2M urea (DPBS) containing trypsin and CaCl2 as described above. The beads were separated from the digest by centrifugation (1,000 g, 1 min), washed (2×1 mL PBS and 2×1 mL water) and then transferred to fresh eppendorfs with 1 mL water. The washed beads were washed once further in 150 μL TEV buffer (50 mM Tris, pH 8, 0.5 mM EDTA, 1 mM DTT) by centrifugation (1,400 g, 3 min) and the resuspended in 150 μL TEV buffer. 5 μL TEV protease (80 μM) was added and the reactions were rotated overnight at 29° C. The TEV digest was separated from the beads by centrifugation (1,400 g, 3 min) and the beads were washed once with water (100 μL). The samples were then acidified to a final concentration of 5% (v/v) formic acid and stored at −80° C. prior to analysis.
# (§2) The resulting probe-modified peptides were collected for MS analysis, which was performed as described above with differences in the salt bumps applied in the chromatographic gradients which in this case were 0%, 30%, 60%, 90% and 100% NH4OAc (500 μM). […] The isoTOP ratios for probe labeled peptides were quantified using the in-house software CIMAGE. […]
# YWHAE = molecular target: T2, YWHAE (Homo sapiens, UniProt P62258); assay: Mapping of FFF probe-modified peptide on YWHAE; details: for Labeled Peptide (residues) of YWHAE 14-3-3 protein epsilon: P62258, PDB 3UBW
# T2 construct: endogenous in cells; host or cells: human cells (HEK293T; a subset of probes also in K562)
# T2 sequence (P62258 1-255): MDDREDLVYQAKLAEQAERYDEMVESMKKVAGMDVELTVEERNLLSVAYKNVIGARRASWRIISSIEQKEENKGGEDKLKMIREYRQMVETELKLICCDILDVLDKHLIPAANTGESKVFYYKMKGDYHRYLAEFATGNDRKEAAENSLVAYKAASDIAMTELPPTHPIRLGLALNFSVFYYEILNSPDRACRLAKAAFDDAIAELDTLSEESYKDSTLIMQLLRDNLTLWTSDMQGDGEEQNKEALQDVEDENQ
# Procedure: as §1, with “The beads were separated from the digest by centrifugation (1,000 g, 1 min), washed (2×1 mL PBS and 2×1 mL water) and then transferred to fresh eppendorfs with 1 mL water. The washed beads were washed once further in 150 μL TEV buffer (50 mM Tris, pH 8, 0.5 mM EDTA, 1 mM DTT) by centrifugation (1,400 g, 3 min) and the resuspended in 150 μL TEV buffer. 5 μL TEV protease (80 μM) was added and the reactions were rotated overnight at 29° C. The TEV digest was separated from the beads by centrifugation (1,400 g, 3 min) and the beads were washed once with water (100 μL). The samples were then acidified to a final concentration of 5% (v/v) formic acid and stored at −80° C. prior to analysis.” left out
# as §2
# BAX = molecular target: T3, BAX (Homo sapiens, UniProt Q07812); assay: Mapping of FFF probe-modified peptide on BAX; details: for Labeled Peptide: residues of probe-labeled peptide
# T3 construct: endogenous in cells; host or cells: human cells (HEK293T; a subset of probes also in K562)
# Procedure: as §1, with “The beads were separated from the digest by centrifugation (1,000 g, 1 min), washed (2×1 mL PBS and 2×1 mL water) and then transferred to fresh eppendorfs with 1 mL water. The washed beads were washed once further in 150 μL TEV buffer (50 mM Tris, pH 8, 0.5 mM EDTA, 1 mM DTT) by centrifugation (1,400 g, 3 min) and the resuspended in 150 μL TEV buffer. 5 μL TEV protease (80 μM) was added and the reactions were rotated overnight at 29° C. The TEV digest was separated from the beads by centrifugation (1,400 g, 3 min) and the beads were washed once with water (100 μL). The samples were then acidified to a final concentration of 5% (v/v) formic acid and stored at −80° C. prior to analysis.” left out
# as §2
# T3 sequence (Q07812 whole entry): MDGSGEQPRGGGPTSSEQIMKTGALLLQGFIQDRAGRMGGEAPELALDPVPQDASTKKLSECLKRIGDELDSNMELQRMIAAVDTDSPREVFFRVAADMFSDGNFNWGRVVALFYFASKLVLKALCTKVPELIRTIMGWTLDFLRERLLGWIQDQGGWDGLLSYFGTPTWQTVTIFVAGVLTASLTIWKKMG
probe-modified peptides in GLA (α-galactosidase (GLA)),Labeled Peptide (residues) of YWHAE 14-3-3 protein epsilon (YWHAE; peptide AAFDDAIAELDTLSEESYK),Labeled Peptide (residues) of YWHAE 14-3-3 protein epsilon (YWHAE; peptide EAAENSLVAYK),probe-modified peptide in YWHAE (YWHAE; lines the primary interaction cleft for MLF1),probe-modified peptide in BAX (BAX; groove that binds BH3-domain activators Bim and Bid),Labeled Peptide (BAX; protein BAX (Q07812)),Labeled Peptide (BAX; protein BAX Apoptosis regulator BAX),Structure (SMILES)
aa 50-68; also recorded: aa 241-253,,,,,,,"C#CCCC1(CCC(=O)Nc2ccc(C3CCNCC3)cc2)N=N1 [probe 9, 3-(3-(But-3-yn-1-yl)-3H-diazirin-3-yl)-N-(4-(piperidin-4-yl)phenyl)propanamide]"
,197-215,143-153,aa 197-215,aa 66-79,66-78,66-78,"C#CCCC1(CCC(=O)N2CCCCC2Cc2ccccc2)N=N1 (stereo not shown) [probe 13, 1-(2-Benzylpiperidin-1-yl)-3-(3-(but-3-yn-1-yl)-3H-diazirin-3-yl)propan-1-one]"
